Patent US8501806B2, “Methods for preventing or reducing colon carcinogenesis” (Nogra Pharma Limited, priority 2008, dated 2013)

What was measured:
fibroblasts = test: Proliferation of normal fibroblasts; assay type: cell-based; conditions: FIG. 4B; 48 hours
CDK2 = CDK2 phosphorylation by Western blotting; assay type: cell-based, human; conditions: FIG. 6, HCT-116 cells
From the text: One of 4 representative Western blots is shown.

CT26-derived tumors = test: In vivo formation of CT26-derived tumors; design: species or system Balb/c mice; conditions: for mice with CT26-derived macroscopic tumors: fourteen days after injection (control 10/10)
Description: (§1) CT26 cells (1×10^5 cells in 300 μl PBS 1×) were injected subcutaneously into the flank of Balb/c mice, whose fur was shaved and depilated. Five groups of 10 mice each were implanted with CT26. The first group received daily subcutaneously 300 μl PBS (control), the remaining groups received daily subcutaneously compound 14 at a final dose of 1, 4, 8, or 12 mg/kg/mouse dissolved in 300 μl PBS. Both compound 14 and PBS were administered starting on day 3. Further experimentation was performed to assess whether compound 14 had anti-cancer activity when administered systemically. To this end, 3 days after the CT26 inoculation, mice were injected with PBS or compound 14 (8 mg/kg/mouse) intraperitoneally. As a control, mice received subcutaneously compound 14 (8 mg/kg/mouse). Mice were monitored over the time for weight loss. After 2 weeks, mice were sacrificed, tumors were photographed, then excised and their mass calculated according to the following formula: ½×(short diameter)×(long diameter)×(height). Total extracts were prepared from xenografts and analyzed for cyclin D1 protein content by Western blotting using a commercially available antibody (Santa Cruz Biotechnology). To examine whether compound 14 was able to reduce the growth of established CRC xenografts, Balb/c mice were implanted with CT26 as described above. After 2 weeks, mice with similar tumor size, determined by caliper measurements, were divided into three groups of 8 mice each. The first group received daily subcutaneously 300 μl PBS (control), the second group received daily subcutaneously 5-ASA (80 mg/kg) dissolved in 300 μl PBS. The last group received daily subcutaneously compound 14 (8 mg/kg) dissolved in 300 μl PBS. Mice were monitored over the time for weight loss. After 2 weeks, mice were sacrificed, tumors were photographed, then excised and their mass calculated as described above. Studies were approved by the Local Ethical Committee.

[1] = test system: established CT26-derived tumors; test: Growth of established CT26 xenografts; assay type: in vivo, Balb/c mice; conditions: FIG. 7D; subcutaneously 8 mg/kg mouse/day for 2 weeks from day 14
Description: as §1, with “To this end, 3 days after the CT26 inoculation, mice were injected with PBS or compound 14 (8 mg/kg/mouse) intraperitoneally. As a control, mice received subcutaneously compound 14 (8 mg/kg/mouse).” left out, “To examine whether compound 14 was able to reduce the growth of established CRC xenografts, Balb/c mice were implanted with CT26 as described above.” left out, “The first group received daily subcutaneously 300 μl PBS (control), the second group received daily subcutaneously 5-ASA (80 mg/kg) dissolved in 300 μl PBS. The last group received daily subcutaneously compound 14 (8 mg/kg) dissolved in 300 μl PBS.” left out, “[…] Mice” for “Studies”, “monitored over” for “approved by”, “time and sacrificed at day 28.” for “Local Ethical Committee.”

4T1 cells = test: CFSE cell proliferation assay, 4T1 cells; assay type: cell-based, BALB/c; conditions: FIG. 9; graded doses, 24 hours
Description: All reagents were from Sigma-Aldrich (Milan, Italy), unless specified. Compound 14 was dissolved as a 25 mM stock solution in culture medium. 4T1 cells, a 6-thioguanine-resistant cell line derived from a BALB/c mammary carcinoma which spontaneously metastasizes to both the lung and liver, were obtained by ATCC and maintained at 37° C. in a humidified atmosphere of 5% CO2 in Dulbecco's modified Eagle's Medium (DMEM) supplemented with 10% inactivated fetal bovine serum (FBS) and 1% penicillin-streptomycin. For cell growth assays, serum-starved 4T1 cells were labeled with carboxyfluorescein diacetate succinimidyl ester (CFSE) (Invitrogen, Milan Italy) at 37° C. for 30 minutes, and then treated with increasing doses of compound 14. After 24 hours, cells were incubated with 5 μg/ml of propidium iodide (PI) for 15 minutes, at 4° C. CFSE and/or PI-positive cells were determined by flow cytometry (Becton Dickinson, Milan, Italy)

4T1-derived tumors = test: 4T1 syngeneic tumor model; assay type: in vivo, Balb/c mice; conditions: FIG. 10; daily subcutaneous or intraperitoneal 8 mg/kg/mouse, starting day 3
Description: Eight- to 10-week-old female Balb/c mice were used for the 4T1 syngeneic tumor model. 4T1 cells (1×10^5 cells in 300 μl PBS 1×) were injected subcutaneously (s.c.) into the flank of mice, whose fur was shaved and depilated. Three groups of 8 mice each were implanted with 4T1. The first group received daily s.c. 300 μl PBS (control), the remaining groups were injected daily with compound 14 (8 mg/kg/mouse) s.c. or intraperitoneally (i.p.). Both compound 14 and PBS were administered starting on day 3. Mice were monitored over the time for weight loss and sacrificed at day 14. Tumors were photographed, and excised, and their mass calculated according to the following formula: ½×(short diameter)×(long diameter)×(height).

**Q.** What does the source list for `COc1ccc(N)cc1C(=O)NO` [compound 14, 2-methoxy-5-amino-N-hydroxybenzamide]?
**A.** proliferation of normal fibroblasts (fibroblasts): did not affect; CDK2 phosphorylation on threonin 14 and tyrosine 15 (CDK2): enhanced phosphorylation; in-vivo formation of CT26-derived tumors (CT26-derived tumors; FIG. 7A, daily subcutaneously 1, 4, 8, or 12 mg/kg/mouse): dose-dependently reduces; CT26-derived xenografts (CT26-derived tumors; FIG. 7B, intra-peritoneally 8 mg/kg/mouse): inhibits; cyclin D1 protein expression in xenografts (CT26-derived tumors; FIG. 7C, Western blotting, two different doses): reduced; body weight loss (CT26-derived tumors; during the study, treated groups): No body weight loss; tumor mass in comparison to controls (CT26-derived tumors; given subcutaneously or intraperitoneally): significant decrease; mice with CT26-derived macroscopic tumors (CT26-derived tumors; intraperitoneally): 7/10; histological analysis of liver, kidney, spleen, and colon (CT26-derived tumors; mice receiving compound): no morphological alteration; survival (CT26-derived tumors; mouse, in vivo): all animals survived; mice with CT26-derived macroscopic tumors (CT26-derived tumors; subcutaneously): 5/10; tumor size of established CT26-derived tumors vs PBS [1]: significantly reduced; in vitro proliferation of 4T1 cells (4T1 cells): dose-dependently inhibited; 4T1-derived tumor mass in comparison to controls (4T1-derived tumors): significant decrease
